Data: PMC6934184, “Selective DNA-PKcs inhibition extends the therapeutic index of localized radiotherapy and chemotherapy” (The Journal of Clinical Investigation, 2019)

Molecular target: T1, LYN B (Homo sapiens, UniProt P07948)
T1 construct: purchased Thermo Fisher Scientific (Life Technologies) SelectScreen
Test: SelectScreen Z'LYTE
Format: biochemical
Protocol: The in vitro kinase selectivity of NU5455 was determined using the SelectScreen Broad Assay Panel (Thermo Fisher Scientific) involving activity and binding assays (Supplemental Table 1). […] Class IA PI3Ks were measured using the p85α subunit.
Kinase [ATP] % Assay Kinase [ATP] % Assay Kinase [ATP] % Assay Kinase [ATP] % Assay […]
CHEK1 (CHK1) Km app 9.3 Z LYN B Km app 3.0 Z TGFBR2 n/a -0.1 L PDGFRA D842V Km app -5.0 Z […]
SGK (SGK1) Km app 8.5 Z MAP4K2 (GCK) Km app 2.7 Z TLK2 n/a -0.3 L STK38 (NDR) n/a -5.9 L
MERTK (cMER) Km app 8.3 Z CDK2/cyclin A Km app 2.7 Z TGFBR1 (ALK5) n/a -0.4 L MATK (HYL) Km app -6.3 Z
FYN Km app 8.3 Z EPHA1 Km app 2.7 Z CLK3 Km app -0.5 Z ABL1 E255K Km app -6.6 Z
TEC n/a 8.1 L CDK2/cyclin E1 n/a 2.7 L MAP3K14 (NIK) n/a -0.5 L STK17A (DRAK1) n/a -6.6 L
KIT V654A n/a 8.1 L TESK2 n/a 2.7 L AKT3 (PKB gamma) Km app -0.5 Z JAK2 JH1 JH2 Km app -6.7 Z
ROS1 Km app 8.0 Z SPHK1 Km app 2.7 A MAP3K9 (MLK1) Km app -0.5 Z PRKACB (PRKAC beta) n/a -6.8 L
FGFR3 K650E Km app 7.9 Z AMPK A2/B1/G1 Km app 2.6 Z IKBKB (IKK beta) Km app -0.6 Z PDGFRA (PDGFR alpha) Km app -6.8 Z
RAF1 (cRAF) Y340D Y341D 100 7.9 Z DYRK3 Km app 2.6 Z CAMK2A (CaMKII alpha) Km app -0.6 Z NEK9 Km app -7.2 Z
PI4KA (PI4K alpha) 10 7.8 A CSNK1D (CK1 delta) Km app 2.6 Z PRKCB1 (PKC beta I) Km app -0.7 Z PDK1 Km app -7.3 Z
HIPK2 Km app 7.8 Z ACVR2A n/a 2.5 L TTK n/a -0.7 L RPS6KB1 (p70S6K) Km app -7.8 Z […]

T1 sequence (P07948 1-491 isoform P07948-2): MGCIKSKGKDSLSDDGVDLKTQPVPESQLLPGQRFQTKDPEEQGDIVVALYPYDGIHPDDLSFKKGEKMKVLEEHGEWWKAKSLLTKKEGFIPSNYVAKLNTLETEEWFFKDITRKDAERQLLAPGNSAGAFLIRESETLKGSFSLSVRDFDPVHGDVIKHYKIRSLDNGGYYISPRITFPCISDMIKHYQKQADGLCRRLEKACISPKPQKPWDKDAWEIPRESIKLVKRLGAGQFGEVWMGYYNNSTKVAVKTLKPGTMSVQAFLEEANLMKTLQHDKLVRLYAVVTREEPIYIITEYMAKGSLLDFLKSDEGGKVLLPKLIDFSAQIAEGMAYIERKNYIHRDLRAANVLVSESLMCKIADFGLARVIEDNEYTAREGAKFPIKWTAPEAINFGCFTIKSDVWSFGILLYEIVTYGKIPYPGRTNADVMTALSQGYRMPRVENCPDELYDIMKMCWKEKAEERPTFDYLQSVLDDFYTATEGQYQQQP

CN(C(=O)CN1CCOCC1)c1ccc2sc3c(-c4cccc5c(=O)cc(N6CC7CCC(C6)O7)oc45)cccc3c2c1 [NU5455]
inhibition at 1 µM: 3%
